Experimental data from the NIST ThermoML archive (doi:10.1021/je800110r).
± gives the expanded uncertainty stated by the source.

Details: 283.14 K, Liquid, Vibrating tube method

CCCCCCCCCC [decane]
Details	mass density [kg/m3]
6497 kPa	742.2 ± 2
6519 kPa	742.2 ± 2
6543 kPa	742.1 ± 2
6560 kPa	742.2 ± 2
6588 kPa	742.2 ± 2
6610 kPa	742.2 ± 2
7156 kPa	742.7 ± 2
7171 kPa	742.6 ± 2
7221 kPa	742.7 ± 2
7240 kPa	742.6 ± 2
7671 kPa	742.8 ± 2
7684 kPa	742.9 ± 2
7747 kPa	743 ± 2
7758 kPa	743 ± 2
7770 kPa	743 ± 2
8186 kPa	743.2 ± 2
8201 kPa	743.4 ± 2
8217 kPa	743.3 ± 2
8232 kPa	743.3 ± 2
8252 kPa	743.3 ± 2
8265 kPa	743.3 ± 2
8279 kPa	743.3 ± 2
8296 kPa	743.4 ± 2
8848 kPa	743.8 ± 2
8878 kPa	743.7 ± 2
8907 kPa	743.7 ± 2
8922 kPa	743.8 ± 2
8936 kPa	743.9 ± 2
8949 kPa	743.7 ± 2
8964 kPa	743.9 ± 2
8980 kPa	743.8 ± 2
8992 kPa	743.9 ± 2
9004 kPa	743.8 ± 2
9019 kPa	743.8 ± 2
9029 kPa	743.9 ± 2
9038 kPa	743.8 ± 2
9050 kPa	743.9 ± 2
9059 kPa	743.9 ± 2
9071 kPa	743.8 ± 2
9080 kPa	743.9 ± 2
9717 kPa	744.3 ± 2
10364 kPa	744.7 ± 2
10421 kPa	744.9 ± 2
10435 kPa	744.9 ± 2
10472 kPa	744.9 ± 2
10482 kPa	744.8 ± 2
10525 kPa	744.9 ± 2
10552 kPa	744.9 ± 2
10563 kPa	744.8 ± 2
10574 kPa	745 ± 2
10588 kPa	744.9 ± 2
10597 kPa	744.9 ± 2
10608 kPa	745 ± 2
10620 kPa	745 ± 2
10631 kPa	745 ± 2
10646 kPa	745 ± 2
10659 kPa	745 ± 2
10673 kPa	745 ± 2
10999 kPa	745.3 ± 2
11564 kPa	745.6 ± 2
11578 kPa	745.6 ± 2
11593 kPa	745.6 ± 2
11608 kPa	745.6 ± 2
11694 kPa	745.7 ± 2
11712 kPa	745.6 ± 2
11728 kPa	745.8 ± 2
11741 kPa	745.7 ± 2
11759 kPa	745.7 ± 2
13134 kPa	746.6 ± 2
13157 kPa	746.7 ± 2
13176 kPa	746.7 ± 2
13196 kPa	746.7 ± 2
13216 kPa	746.6 ± 2
13236 kPa	746.7 ± 2
13256 kPa	746.6 ± 2
13276 kPa	746.7 ± 2
13296 kPa	746.7 ± 2
13358 kPa	746.8 ± 2
13379 kPa	746.8 ± 2
13400 kPa	746.9 ± 2
13421 kPa	746.8 ± 2
13438 kPa	746.8 ± 2
13465 kPa	746.8 ± 2
13489 kPa	746.9 ± 2
13507 kPa	746.8 ± 2
13528 kPa	746.8 ± 2
13546 kPa	746.8 ± 2
13574 kPa	746.9 ± 2
13613 kPa	747 ± 2
14239 kPa	747.3 ± 2
14264 kPa	747.4 ± 2
14287 kPa	747.4 ± 2
14316 kPa	747.4 ± 2
14335 kPa	747.4 ± 2
14461 kPa	747.5 ± 2
15158 kPa	748 ± 2
15181 kPa	747.9 ± 2
15201 kPa	748.1 ± 2
15221 kPa	748 ± 2
15259 kPa	748.1 ± 2
15288 kPa	748 ± 2
15328 kPa	748 ± 2
16053 kPa	748.5 ± 2
17575 kPa	749.4 ± 2
17600 kPa	749.6 ± 2
17681 kPa	749.6 ± 2
18272 kPa	750 ± 2
18327 kPa	750.1 ± 2
18353 kPa	749.9 ± 2
18410 kPa	750.1 ± 2
18436 kPa	750.1 ± 2
18466 kPa	750.1 ± 2
18497 kPa	750.2 ± 2
18520 kPa	750.2 ± 2
18543 kPa	750.1 ± 2
18605 kPa	750.2 ± 2
18628 kPa	750.2 ± 2
19272 kPa	750.6 ± 2
19319 kPa	750.6 ± 2
19342 kPa	750.7 ± 2
19377 kPa	750.7 ± 2
19413 kPa	750.7 ± 2
20535 kPa	751.4 ± 2
20578 kPa	751.3 ± 2
20601 kPa	751.5 ± 2
21429 kPa	752 ± 2
21453 kPa	752 ± 2
21475 kPa	751.9 ± 2
21504 kPa	752 ± 2
21533 kPa	752 ± 2
21563 kPa	752.1 ± 2
21589 kPa	752 ± 2
21622 kPa	752.2 ± 2
21647 kPa	752.1 ± 2
21669 kPa	752.1 ± 2
21696 kPa	752 ± 2
21719 kPa	752.2 ± 2
